This is an account of results in PubChem BioAssay (NCI).

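In this assay, cells in 96-well plates receive the compound at five concentrations for 48 hours. Endpoints are linearly interpolated between the surrounding concentrations. At the TGI there is no net growth.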

Test systems include UACC-62 melanoma; SF-295 CNS; DU-145 prostate; SW-620 colon; MOLT-4 leukemia; A498 renal; HCT-15 colon; SNB-75 CNS; SK-OV-3 ovarian; HOP-62 NSCLC.
Holding throughout (assay): inhibition of tumour cell growth, NCI panel, 48 h

On to `CCN(CC)/N=C\c1c2ccccc2cc2ccccc12`, for which the TGI with UACC-62 melanoma, with SF-295 CNS, with DU-145 prostate, in the experiment with SW-620 colon, with MOLT-4 leukemia and in the experiment with A498 renal was greater than 100 µM throughout. Also, the TGI in the experiment on HCT-15 colon was greater than 100 µM; with SNB-75 CNS, 68.7 µM; in the experiment with SK-OV-3 ovarian, greater than 100 µM.

Consider `N#CCCN(CCCCN(CCC#N)C(=O)Nc1ccccc1)C(=O)Nc1ccccc1`, for which the TGI in the experiment on UACC-62 melanoma, with HOP-62 NSCLC, in the experiment on SF-295 CNS, in the experiment with DU-145 prostate, in the experiment with SW-620 colon and in the experiment on MOLT-4 leukemia was greater than 100 µM in each case. The TGI in the experiment on A498 renal, with HCT-15 colon, in the experiment with SNB-75 CNS and in the experiment on SK-OV-3 ovarian was greater than 100 µM in each case.

Consider `COc1cc2nc(-c3cccs3)nc(Nc3ccccc3C(=O)NN)c2cc1OC`, for which the TGI in the experiment on UACC-62 melanoma, in the experiment with HOP-62 NSCLC, with SF-295 CNS, in the experiment with DU-145 prostate, in the experiment with SW-620 colon and in the experiment with MOLT-4 leukemia was greater than 100 µM in each case. Besides, the TGI with A498 renal, in the experiment with HCT-15 colon, in the experiment on SNB-75 CNS and in the experiment with SK-OV-3 ovarian was greater than 100 µM throughout.

Regarding `O=c1c2cccnc2oc2c(Cl)cc(-c3nn[nH]n3)cc12`, the TGI in the experiment on UACC-62 melanoma, in the experiment with HOP-62 NSCLC, in the experiment on DU-145 prostate, with SW-620 colon, with A498 renal and in the experiment with HCT-15 colon was greater than 100 µM throughout. The TGI in the experiment with SNB-75 CNS and in the experiment with SK-OV-3 ovarian was greater than 100 µM in each case.

As to `CCOC(=O)c1sc2nc(SC)nc3c2c1NCN3C`, the TGI was greater than 100 µM in the experiment with UACC-62 melanoma; 47.2 µM in the experiment on HOP-62 NSCLC; greater than 100 µM in the experiment on SF-295 CNS; greater than 100 µM in the experiment with DU-145 prostate; 57.6 µM in the experiment on A498 renal; greater than 100 µM with HCT-15 colon. Also, the figures for the TGI in the experiment on SNB-75 CNS and in the experiment with SK-OV-3 ovarian were 22.9 µM and 38.3 µM, respectively.

`O/N=C1\C/C(=N\O)c2c(Br)sc(Br)c21`: the TGI in the experiment on UACC-62 melanoma is greater than 100 µM; with HOP-62 NSCLC, greater than 100 µM; with SF-295 CNS, greater than 100 µM; in the experiment on DU-145 prostate, greater than 100 µM; with SW-620 colon, 72.7 µM; in the experiment on MOLT-4 leukemia it was 92.7 µM. Moreover, the TGI was greater than 100 µM in the experiment with A498 renal, 41.7 µM with HCT-15 colon, 51.3 µM with SNB-75 CNS and greater than 100 µM in the experiment on SK-OV-3 ovarian.

With `Oc1ccc(-c2nc3cc(C(F)(F)F)ccc3s2)cc1`, the TGI in the experiment with UACC-62 melanoma is 27.2 µM; with SF-295 CNS, 28.2 µM; in the experiment with DU-145 prostate, 30 µM; in the experiment on SW-620 colon, 40.2 µM; in the experiment with MOLT-4 leukemia, 87.5 µM; with A498 renal, 32.6 µM. For the same molecule, the figures for the TGI with HCT-15 colon and in the experiment with SK-OV-3 ovarian were 22.1 µM and 40.7 µM, respectively.

`N#Cc1c(/C=C/c2ccccc2)c2c([nH]c1=S)CCCCC2`: the TGI in the experiment with HOP-62 NSCLC, in the experiment on SF-295 CNS, in the experiment on DU-145 prostate, in the experiment on SW-620 colon, in the experiment on MOLT-4 leukemia and in the experiment with A498 renal was greater than 100 µM each time. Moreover, the TGI in the experiment on HCT-15 colon, in the experiment on SNB-75 CNS and in the experiment on SK-OV-3 ovarian was greater than 100 µM throughout.

Turning to `OC(CCN1CCN(CCOC(c2ccccc2)c2ccccc2)CC1)c1ccccc1` (centres undefined), the TGI in the experiment on UACC-62 melanoma is 30.2 µM; with HOP-62 NSCLC, 44.3 µM; in the experiment on SF-295 CNS, 38.8 µM; with DU-145 prostate, greater than 100 µM; with SW-620 colon it was greater than 100 µM; with A498 renal, 21.6 µM. The results for the TGI in the experiment on HCT-15 colon, in the experiment with SNB-75 CNS and with SK-OV-3 ovarian were 37.1 µM, greater than 100 µM and greater than 100 µM, respectively.

On to `CCOP(=O)(OCC)C(Nc1ccc(Cl)cc1)c1ccc(F)cc1` (centres undefined), for which the TGI with UACC-62 melanoma came out at 29.3 µM; in the experiment on HOP-62 NSCLC, 48.2 µM; in the experiment with SF-295 CNS, 44.8 µM; in the experiment with DU-145 prostate, 91.4 µM; in the experiment with MOLT-4 leukemia, 61.7 µM; in the experiment on A498 renal, 58.7 µM. Besides, the figures for the TGI in the experiment with HCT-15 colon, in the experiment with SNB-75 CNS and in the experiment on SK-OV-3 ovarian were greater than 100 µM, 84.8 µM and greater than 100 µM, respectively.

Take `COc1cc2nc(-c3cccs3)nc(N3CCN(c4ccccc4)CC3)c2cc1OC`: the TGI in the experiment on UACC-62 melanoma, in the experiment with HOP-62 NSCLC, with SF-295 CNS, with DU-145 prostate, in the experiment with SW-620 colon and with A498 renal was greater than 100 µM in each case. Also, the TGI in the experiment on HCT-15 colon, with SNB-75 CNS and in the experiment with SK-OV-3 ovarian was greater than 100 µM throughout.

In the case of `O=C(CC(=O)N1N=C(c2ccccc2)C(N=Nc2ccc(S(=O)(=O)CCOS(=O)(=O)O)cc2)C1=O)Nc1ccc(Cl)cc1` (centres undefined), the TGI in the experiment with UACC-62 melanoma, in the experiment on HOP-62 NSCLC, in the experiment with SF-295 CNS, in the experiment with DU-145 prostate, in the experiment on MOLT-4 leukemia and in the experiment on A498 renal was greater than 100 µM throughout. The TGI in the experiment with HCT-15 colon, with SNB-75 CNS and in the experiment on SK-OV-3 ovarian was greater than 100 µM each time.

On to `COc1ccc(C2N(c3ccc(C)c(N=C=O)c3)C(=O)N3C(c4ccc(OC)cc4)N(c4ccc(C)c(N=C=O)c4)C(=O)N23)cc1` (centres undefined), for which the TGI in the experiment on HOP-62 NSCLC, in the experiment on SF-295 CNS, with DU-145 prostate, in the experiment with SW-620 colon, in the experiment with MOLT-4 leukemia and in the experiment with A498 renal was greater than 100 µM each time. Further, the TGI with HCT-15 colon and with SNB-75 CNS was greater than 100 µM each time.

`Cc1cc(N(CCC#N)CCC#N)ccc1/C(N=Nc1ccc(C(=O)O)cc1)=N\NC(=O)c1ccccc1`: the TGI in the experiment with UACC-62 melanoma is greater than 100 µM; in the experiment with HOP-62 NSCLC, greater than 100 µM; in the experiment on SF-295 CNS it was greater than 100 µM; in the experiment with DU-145 prostate, greater than 100 µM; in the experiment with MOLT-4 leukemia, greater than 100 µM; in the experiment with A498 renal it was 84.4 µM. Besides, the TGI in the experiment with HCT-15 colon, in the experiment with SNB-75 CNS and in the experiment with SK-OV-3 ovarian was greater than 100 µM in each case.

Consider `CC(C)(C)OC(=O)N1C(=O)C2CCCC21` (centres undefined), for which the TGI in the experiment on UACC-62 melanoma, with HOP-62 NSCLC, in the experiment on DU-145 prostate, in the experiment on SW-620 colon, with MOLT-4 leukemia and in the experiment on A498 renal was greater than 100 µM each time. Further, the TGI in the experiment on HCT-15 colon, in the experiment with SNB-75 CNS and with SK-OV-3 ovarian was greater than 100 µM each time.
